Laboratory results as given in PMC7466059, “Synthesis and Ex Vivo Trans-Corneal Permeation of Penetratin Analogues as Ophthalmic Carriers: Preliminary Results” (Pharmaceutics, 2020).

How the values were obtained:
[1] = Ex vivo trans-corneal permeation, Franz-type diffusion cells; assay type: in vitro ADME, pig; conditions: ex vivo porcine cornea, epithelial side to donor, area 0.2 cm^2; donor 100 µM, 200 µL; donor and receiving solutions PBS pH 7.4; 37 °C, 6 h, hourly sampling; fluorescence 485/535 nm; mean ± sd, n = 3-4
Protocol: Permeation experiments across freshly porcine cornea were performed following a method previously reported. In detail, transparent porcine corneas were isolated from fresh pig eyes (breed: Large White and Landrace; weight: 145–190 kg; age: 10–11 months; sex: female and male; Macello Annoni SpA, Busseto, Italy) and supported by glass Franz-type diffusion cells, having a permeation area of 0.2 cm^2. The epithelial side was in contact with the donor, i.e., 200 µL of aqueous solution containing a peptide: each concentration and solvent are indicated in Table 2. Donor concentrations were selected based on different solubility and analytical sensitivity (see paragraph 2.4 and Table S2). For some peptides, the solubilization was improved by dissolving the raw material using small amount of DMSO (final concentration less than 5% v/v), and then PBS or PBS+0.1% BSA were alternately added.
To fill the receptor compartment, around 4 mL of degassed PBS or PBS+0.1% BSA was used (see Table 2), being kept at 37 °C and maintained under magnetic stirring to avoid any boundary layer effect. The presence of 0.1% BSA aids in preventing peptides aggregation. Permeation experiments lasted 6 h, and for quantification purposes, 200 µL of the receiving solution were collected every hour and reintegrated with fresh medium. Each condition was replicated between 3 and 4 times, using cornea isolated from different animals.
Permeation samples were analysed without preliminary separation by fluorescence, using a Spark 10M microplate reader (Tecan Trading AG, Switzerland); excitation and emission wavelengths were 485 nm and 535 nm, respectively. Standard solutions were prepared in PBS pH 7.4 or in PBS containing BSA 0.1%. RSD% (relative standard deviation %) was lower than 10%, while ER% (relative error %) resulted lower than 15%.
The amount of CPP permeated across the cornea (nmol/cm^2) is plotted against time (hour): the slope of the regression line at steady state represents the trans-corneal flux J (nmol/cm^2 h). The apparent permeability coefficient Papp (cm/s) is then calculated as Equation (1): Papp = J/c(1) being c (µM) the concentration of the donor solution. Papp allows for a direct comparison among permeants studied using different donor concentrations.

[2] = set-up: method as in PMID 24521351, PMID 28927928; conditions: literature report; cited from earlier work

## CC[C@H](C)[C@H](NC(=O)[C@H](CCCCN)NC(=O)[C@@H](NC(=O)[C@H](CCC(N)=O)NC(=O)[C@H](CCCNC(=N)N)NC(=O)c1ccc2c(c1)C(=O)OC21c2ccc(O)cc2Oc2cc(O)ccc21)[C@@H](C)CC)C(=O)N[C@@H](Cc1c[nH]c2ccccc12)C(=O)N[C@@H](Cc1ccccc1)C(=O)N[C@@H](CCC(N)=O)C(=O)N[C@@H](CC(N)=O)C(=O)N[C@@H](CCCNC(=N)N)C(=O)N[C@@H](CCCNC(=N)N)C(=O)N[C@@H](CCSC)C(=O)N[C@@H](CCCCN)C(=O)N[C@@H](Cc1c[nH]c2ccccc12)C(=O)N[C@@H](CCCCN)C(=O)N[C@@H](CCCCN)C(N)=O [reference compound]
[1]
  Papp (apparent permeability coefficient): 4.54 ± 2.01 10^−6 cm/s
[2]
  ocular toxicity: lacking in ocular toxicity
